We go through eight molecules from patent US7799809B2, “Carboxamide compounds and their use as calpain inhibitors” (Abbott GmbH & Co. KG, priority 2006, dated 2010).

Assay type in all cases: biochemical
One assay has as its target T1, cathepsin B (Homo sapiens, UniProt P07858).
T1 construct: cathepsin B—isolated from human liver (Calbiochem #219362); purchased Calbiochem 219362; host or cells: human liver (tissue-derived)
Nature of the assay: Cathepsin B enzyme inhibition in vitro (kinetic fluorescence assay). Conditions: cathepsin B isolated from human liver vs calpain I. The method in brief: (§1)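 Inhibition is measured at room temperature in cysteine-containing MES buffer, pH 6.0, by continuous fluorescence at 460 nm. Cathepsin S (0.5 nM) uses 20 μM Z-Val-Val-Arg-AMC; L (1 nM) and B (0.25 nM) use Z-Phe-Arg-AMC at 2 and 100 μM respectively.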

A further assay deals with T2, cathepsin K (Homo sapiens, UniProt P43235).
T2 construct: purchased Calbiochem 342001; host or cells: E. coli
T2 sequence (P43235 115-329): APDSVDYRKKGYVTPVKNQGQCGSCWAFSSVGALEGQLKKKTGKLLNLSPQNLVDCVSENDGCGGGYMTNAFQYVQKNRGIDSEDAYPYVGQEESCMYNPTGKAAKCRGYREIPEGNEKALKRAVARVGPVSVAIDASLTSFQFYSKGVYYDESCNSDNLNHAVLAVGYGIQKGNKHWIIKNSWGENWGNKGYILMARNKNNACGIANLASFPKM
Nature of the assay: Cathepsin K enzyme inhibition in vitro (kinetic fluorescence assay). Particulars: cathepsin K activated from recombinant human procathepsin K vs calpain I. How it is done:
The following solutions and buffers were employed: • HBS (for 40 ml): 800 μl M HEPES; 2.16 ml 100 mM KCl; 4.8 ml 1M NaCl; 3.59 ml 5% glucose; 60 μl μM MgSO4; 400 μl 100 mM Na pyruvate, 28.19 ml water; pH 7.2-7.5. • lysis buffer (for 20 ml): 400 μl M Tris pH 8.2; 2.74 ml 1M NaCl; 520 μl 0.5M EDTA; 2 ml 10% triton X-100; 0.8 ml (=1:25) CompletePlus (1 tablet/2 ml H2O); 200 μl 100 mM Pefabloc; 13.34 ml water, pH 8.2. • TBST (10×) (for 1 l): 100 mM Tris (12.1 g); 1.5M NaCl (87 g); 1% Tween 20 (10 g), adjusted to pH 8. I Enzyme Inhibition In Vitro: • Testing for blockade of the corresponding enzymic activities was carried out by means of kinetic fluorescence assays (excitation 390 nm, emission 460 nm). • Apparent Ki values were calculated from the experimentally determined IC50 values by the Cheng-Prussoff relation assuming a reversible competitive enzyme inhibition. The Km values of the substrates used under the assay conditions indicated above were: 90 μM (Z-Phe-Arg-AMC, cathepsin B), 10 μM (Z-Gly-Pro-Arg-AMC, cathepsin K), 2 μM (Z-Phe-Arg-AMC, cathepsin L), and 30 μM (Z-Val-Val-Arg-AMC, cathepsin S). • The indicated Ki values are averages of the inhibition constants calculated on the basis of 2 to 4 independent dose-effect plots.
The following assays were used: • 1. Calpain I: • 20 nM calpain-I—isolated from human erythrocytes (Calbiochem #208713), 100 μM Suc-Leu-Tyr-AMC (Bachem #1-1355) as substrate in buffer with 62 mM imidazole, 0.3 mM CaCl2, 0.10% CHAPS, 0.05% BSA, 1 mM DTT at pH 7.3 and room temperature. • 2. Cathepsin B: • 0.25 nM cathepsin B—isolated from human liver (Calbiochem #219362), 100 μM Z-Phe-Arg-AMC (Bachem #I-1160) as substrate 50 mM MES, 2 mM EDTA, 0.05% Brij 35, 2.5 mM L-cysteine, pH 6.0, room temperature. • 3. Cathepsin K: • 3 nM cathepsin K—activated from recombinant human procathepsin K from E. coli (Calbiochem #342001), 10 μM Z-Gly-Pro-Arg-AMC (Biomol #P-142) as substrate in 50 mM MES, 2 mM EDTA, 0.05% Brij 35, 2.5 mM L-cysteine, pH 6.0, room temperature. • 4. Cathepsin L: • 1 nM cathepsin L—isolated from human liver (Calbiochem #219402), 2 μM Z-Phe-Arg-AMC (Bachem #1-1160) as substrate in 50 mM MES, 2 mM EDTA, 0.05% Brij 35, 2.5 mM L-cysteine, pH 6.0, room temperature. • 5. Cathepsin S: • 0.5 nM recombinant human cathepsin S from E. coli (Calbiochem #219343), 20 μM Z-Val-Val-Arg-AMC (Bachem #1-1540) as substrate in 50 mM MES, 2 mM EDTA, 0.05% Brij 35, 2.5 mM L-cysteine, pH 6.0, room temperature. • The results of the in vitro determination are indicated in Table 1. The following abbreviations are used in Table 1: • The “Calpain activity” column, ++ stands for a calpain Ki (Ki(calpain)) of ≦40 nM and + means: 40 nM<Ki(Calpain)≦100 nM. • The “Sel. cat. B” column indicates the Ki(cathepsin B)/Ki(calpain) ratio. In this connection, ++ means a Ki(cathepsin B)/Ki(calpain) ratio of ≧30 and + means 10≦Ki(cathepsin B)/Ki(calpain)<30. • The “Sel. cat. K” column indicates the Ki(cathepsin K)/Ki(calpain) ratio. In this connection, ++ means a Ki(cathepsin K)/Ki(calpain) ratio of ≧30 and + means 10≦Ki(cathepsin K)/Ki(calpain)<30. • The “Sel. cat. L” column indicates the Ki(cathepsin L)/Ki(calpain) ratio. In this connection, ++ means a Ki(cathepsin L)/Ki(calpain) ratio of ≧50 and + means 30≦Ki(cathepsin L)/Ki(calpain)<50. • The “Sel. cat. S” column indicates the Ki(cathepsin S)/Ki(calpain) ratio. In this connection, ++ means a Ki(cathepsin S)/Ki(calpain) ratio of ≧100 and + means 50≦Ki(cathepsin S)/Ki(calpain)<100.

A further assay addresses T3, cathepsin L (Homo sapiens, UniProt P07711).
T3 construct: cathepsin L—isolated from human liver (Calbiochem #219402); purchased Calbiochem 219402; host or cells: human liver (tissue-derived)
Nature of the assay: Cathepsin L enzyme inhibition in vitro (kinetic fluorescence assay). Particulars: cathepsin L isolated from human liver vs calpain I. The method in brief:
as §1

The target of another assay is T4, cathepsin S (Homo sapiens, UniProt P25774).
T4 construct: purchased Calbiochem 219343; host or cells: E. coli
T4 sequence (P25774 115-331): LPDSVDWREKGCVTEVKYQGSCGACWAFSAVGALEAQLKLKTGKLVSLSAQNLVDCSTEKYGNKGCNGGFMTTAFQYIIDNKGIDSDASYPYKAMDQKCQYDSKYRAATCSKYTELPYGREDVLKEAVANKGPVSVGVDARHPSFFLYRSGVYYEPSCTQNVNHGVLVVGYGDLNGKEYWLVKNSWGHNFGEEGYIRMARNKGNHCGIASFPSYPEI
Nature of the assay: Cathepsin S enzyme inhibition in vitro (kinetic fluorescence assay). Particulars: recombinant human cathepsin S vs calpain I. The method in brief: as §1

T3 sequence (P07711 114-333): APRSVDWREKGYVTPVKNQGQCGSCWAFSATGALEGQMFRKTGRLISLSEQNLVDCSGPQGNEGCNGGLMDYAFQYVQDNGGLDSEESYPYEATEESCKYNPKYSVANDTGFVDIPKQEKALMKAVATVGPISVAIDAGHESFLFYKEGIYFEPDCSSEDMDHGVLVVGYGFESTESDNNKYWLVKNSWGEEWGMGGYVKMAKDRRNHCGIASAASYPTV

On to `NC(=O)C(=O)C(Cc1cccc(F)c1)NC(=O)c1cccnc1-n1ccc(-c2ccccc2OC(F)(F)F)n1` (centres unmarked) [Example 162, N-{3-Amino-1-[(3-fluorophenyl)methyl]-2,3-dioxopropyl}-2-(3-{2-[(trifluoromethyl)oxy]phenyl}-1H-pyrazol-1-yl)pyridine-3-carboxamide], for which the “Sel cat. B: Ki(cathepsin B)/Ki(calpain) ratio” value on cathepsin B was “++ (++ means a Ki(cathepsin B)/Ki(calpain) ratio of ≧30)”. Moreover, at cathepsin K, the “Sel cat. K: Ki(cathepsin K)/Ki(calpain) ratio” value is given as “++ (++ means a Ki(cathepsin K)/Ki(calpain) ratio of ≧30)”. Further, the “Sel cat. L: Ki(cathepsin L)/Ki(calpain) ratio” value on cathepsin L is listed as “++ (++ means a Ki(cathepsin L)/Ki(calpain) ratio of ≧50)”. In addition, on cathepsin S, the “Sel cat. S: Ki(cathepsin S)/Ki(calpain) ratio” value is given as “++ (++ means a Ki(cathepsin S)/Ki(calpain) ratio of ≧100)”.
`NC(=O)C(=O)C(Cc1ccccc1)NC(=O)c1cccnc1-n1cc2c(n1)-c1ccccc1OC2` (centres unmarked) [Example 100, N-[3-Amino-2,3-dioxo-1-(phenylmethyl)propyl]-2-chromeno[4,3-c]pyrazol-2(4H)-ylpyridine-3-carboxamide]: the “Sel cat. B: Ki(cathepsin B)/Ki(calpain) ratio” value at cathepsin B is on record as “+ (+ means 10≦Ki(cathepsin B)/Ki(calpain)<30)”. The “Sel cat. K: Ki(cathepsin K)/Ki(calpain) ratio” value on cathepsin K is recorded as “++ (++ means a Ki(cathepsin K)/Ki(calpain) ratio of ≧30)”. Besides, the “Sel cat. L: Ki(cathepsin L)/Ki(calpain) ratio” value on cathepsin L is “++ (++ means a Ki(cathepsin L)/Ki(calpain) ratio of ≧50)”. Moreover, the “Sel cat. S: Ki(cathepsin S)/Ki(calpain) ratio” value on cathepsin S is on record as “++ (++ means a Ki(cathepsin S)/Ki(calpain) ratio of ≧100)”.
Turning to `NC(=O)C(=O)C(Cc1ccc(OCc2ccccc2)cc1)NC(=O)c1cccnc1-n1ccc(-c2ccccc2)n1` (centres unmarked) [Example 127, N-[3-Amino-2,3-dioxo-1-({4-[(phenylmethyl)oxy]phenyl}methyl)propyl]-2-(3-phenyl-1H-pyrazol-1-yl)pyridine-3-carboxamide], at cathepsin B, the “Sel cat. B: Ki(cathepsin B)/Ki(calpain) ratio” value is given as “++ (++ means a Ki(cathepsin B)/Ki(calpain) ratio of ≧30)”. The “Sel cat. K: Ki(cathepsin K)/Ki(calpain) ratio” value on cathepsin K is “++ (++ means a Ki(cathepsin K)/Ki(calpain) ratio of ≧30)”. Besides, at cathepsin L, the “Sel cat. L: Ki(cathepsin L)/Ki(calpain) ratio” value is “++ (++ means a Ki(cathepsin L)/Ki(calpain) ratio of ≧50)”. In addition, the “Sel cat. S: Ki(cathepsin S)/Ki(calpain) ratio” value at cathepsin S is listed as “++ (++ means a Ki(cathepsin S)/Ki(calpain) ratio of ≧100)”.
`NC(=O)C(=O)C(Cc1ccccc1)NC(=O)c1cccnc1-n1ccc(-c2ccc(Cl)s2)n1` (centres unmarked) [Example 103, N-[3-Amino-2,3-dioxo-1-(phenylmethyl)propyl]-2-[3-(5-chloro-2-thienyl)-1H-pyrazol-1-yl]pyridine-3-carboxamide]: the “Sel cat. B: Ki(cathepsin B)/Ki(calpain) ratio” value at cathepsin B is “+ (+ means 10≦Ki(cathepsin B)/Ki(calpain)<30)”. The “Sel cat. K: Ki(cathepsin K)/Ki(calpain) ratio” value on cathepsin K is “+ (+ means 10≦Ki(cathepsin K)/Ki(calpain)<30)”. For the same molecule, at cathepsin L, the “Sel cat. L: Ki(cathepsin L)/Ki(calpain) ratio” value was “++ (++ means a Ki(cathepsin L)/Ki(calpain) ratio of ≧50)”. Besides, the “Sel cat. S: Ki(cathepsin S)/Ki(calpain) ratio” value on cathepsin S is on record as “++ (++ means a Ki(cathepsin S)/Ki(calpain) ratio of ≧100)”.
The like results for `NC(=O)C(=O)C(Cc1ccccc1)NC(=O)c1cccnc1-n1ccc(-c2cc(F)cc(F)c2)n1` (centres unmarked) [Example 91, N-[3-Amino-2,3-dioxo-1-(phenylmethyl)propyl]-2-[3-(3,5-difluorophenyl)-1H-pyrazol-1-yl]pyridine-3-carboxamide] were, in that order, “++ (++ means a Ki(cathepsin B)/Ki(calpain) ratio of ≧30)”, “+ (+ means 10≦Ki(cathepsin K)/Ki(calpain)<30)”, “++ (++ means a Ki(cathepsin L)/Ki(calpain) ratio of ≧50)” and “++ (++ means a Ki(cathepsin S)/Ki(calpain) ratio of ≧100)”.
The like results for `COc1c(C)cc(C)cc1-c1ccn(-c2ncccc2C(=O)NC(Cc2ccccc2)C(=O)C(N)=O)n1` (centres unmarked) [Example 121, N-[3-Amino-2,3-dioxo-1-(phenylmethyl)propyl]-2-{3-[3,5-dimethyl-2-(methyloxy)phenyl]-1H-pyrazol-1-yl}pyridine-3-carboxamide] were, in that order, “++ (++ means a Ki(cathepsin B)/Ki(calpain) ratio of ≧30)”, “++ (++ means a Ki(cathepsin K)/Ki(calpain) ratio of ≧30)”, “++ (++ means a Ki(cathepsin L)/Ki(calpain) ratio of ≧50)” and “++ (++ means a Ki(cathepsin S)/Ki(calpain) ratio of ≧100)”.
In the case of `NC(=O)C(=O)C(Cc1ccccc1)NC(=O)c1cccnc1-n1ccc(-c2cc(C(F)(F)F)ccc2CN2CCOCC2)n1` (centres unmarked) [Example 163, N-[3-Amino-2,3-dioxo-1-(phenylmethyl)propyl]-2-{3-[2-(morpholin-4-ylmethyl)-5-(trifluoromethyl)phenyl]-1H-pyrazol-1-yl}pyridine-3-carboxamide], the “Sel cat. B: Ki(cathepsin B)/Ki(calpain) ratio” value on cathepsin B was “+ (+ means 10≦Ki(cathepsin B)/Ki(calpain)<30)”. Also, the “Sel cat. K: Ki(cathepsin K)/Ki(calpain) ratio” value on cathepsin K is on record as “+ (+ means 10≦Ki(cathepsin K)/Ki(calpain)<30)”. In addition, at cathepsin L, the “Sel cat. L: Ki(cathepsin L)/Ki(calpain) ratio” value is “+ (+ means 30≦Ki(cathepsin L)/Ki(calpain)<50)”. The “Sel cat. S: Ki(cathepsin S)/Ki(calpain) ratio” value at cathepsin S is reported as “++ (++ means a Ki(cathepsin S)/Ki(calpain) ratio of ≧100)”.
Turning to `NC(=O)C(=O)C(Cc1ccccc1)NC(=O)c1cccnc1-n1ccc(-c2ccc(N3CCCC3)cc2)n1` (centres unmarked) [Example 69, N-(3-Amino-1-benzyl-2,3-dioxopropyl)-2-[3-(4-pyrrolidin-1-ylphenyl)-1H-pyrazol-1-yl]nicotinamide], the “Sel cat. B: Ki(cathepsin B)/Ki(calpain) ratio” value on cathepsin B was “+ (+ means 10≦Ki(cathepsin B)/Ki(calpain)<30)”. Besides, the “Sel cat. K: Ki(cathepsin K)/Ki(calpain) ratio” value on cathepsin K was “+ (+ means 10≦Ki(cathepsin K)/Ki(calpain)<30)”. Moreover, the “Sel cat. L: Ki(cathepsin L)/Ki(calpain) ratio” value at cathepsin L is listed as “++ (++ means a Ki(cathepsin L)/Ki(calpain) ratio of ≧50)”. In addition, the “Sel cat. S: Ki(cathepsin S)/Ki(calpain) ratio” value on cathepsin S was “++ (++ means a Ki(cathepsin S)/Ki(calpain) ratio of ≧100)”.
